Each compound was assayed against JNK3 (Homo sapiens (Human), UniProt P53779) (assay: Measurement of JNK3 enzyme activity (33P-ATP filter-binding)). Settings: human JNK3, ATP 10 μM, ATF2 3 μM.
Type: biochemical
Method: The changes in JNK3 enzyme activity resulting from being treated with the inventive imidazole derivative (Formula 1) shown in a following Table 1 were identified through IC50.
First of all, after a substrate was inserted into a prepared base reaction buffer solution (20 mM Hepes ([…]), 10 mM MgCl2, 1 mM EGTA, 0.02% Brij35, 0.02 mg/ml BSA, 0.1 mM Na3VO4, 2 mM DTT, 1% DMSO), a human JNK3 enzyme was added into a prepared substrate solution and then mixed together. As the substrate, ATP (10 μM) and ATF2 (3 μM) were used, among which the ATP was also used as a common substrate. Then, compounds of Examples 1-18 and 25-36, which were dissolved in 100% DMSO, were inserted into an enzyme reaction solution, and then cultured at room temperature for 20 minutes. Then, ^33P-ATP was inserted into the above reaction mixture solution to initiate a reaction, then cultured at room temperature for 2 hours, and then an enzyme activity was detected by means of a filter-binding method.
Particularly, after each 25 μl of the resulting solution was slowly spotted on P81 paper, it was inserted into a scintillation vial, and washed with 0.75% phosphoric acid four times for 10 minutes each, and with acetone once for 5 minutes. 5 ml of scintillation cocktail was inserted into the above scintillation vial and a resulting signal was read by means of a scintillation counter.
IC50 values of compounds of Examples 1-18 and 25-36 with regard to JNK3 enzyme activity were shown in a following Table 2.

JNK3, sequence (P53779 whole entry): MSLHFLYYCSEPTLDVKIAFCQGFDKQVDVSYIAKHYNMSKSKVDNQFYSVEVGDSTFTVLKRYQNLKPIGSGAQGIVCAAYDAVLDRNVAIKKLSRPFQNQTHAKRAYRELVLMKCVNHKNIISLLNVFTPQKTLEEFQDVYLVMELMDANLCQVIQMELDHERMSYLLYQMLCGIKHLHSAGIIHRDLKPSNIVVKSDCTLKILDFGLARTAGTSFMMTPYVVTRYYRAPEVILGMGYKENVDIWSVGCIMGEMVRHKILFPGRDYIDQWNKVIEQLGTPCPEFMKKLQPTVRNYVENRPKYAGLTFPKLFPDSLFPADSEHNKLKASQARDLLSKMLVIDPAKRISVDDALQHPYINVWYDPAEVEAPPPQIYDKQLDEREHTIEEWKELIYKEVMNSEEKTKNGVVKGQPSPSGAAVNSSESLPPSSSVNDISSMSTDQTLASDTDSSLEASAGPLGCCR

Row | IC50 [nM] | SMILES
1 | < 30 | N#CCc1cnc(-c2ccc3occc3c2)n1-c1ccnc(NC2CCCN(C(=O)C3CC3)C2)n1 (stereo not drawn) [Example 37]
2 | 30 to 100 | N#CCc1cnc(-c2ccc3c(c2)OCO3)n1-c1ccnc(NC2CCCN(C(=O)C3CC3)C2)n1 (stereo not drawn) [Example 31, 2-(2-(benzo[d][1,3]dioxol-5-yl)-1-(2-(1-(cyclopropanecarbonyl)piperidine-3-ylamino)pyrimidine-4-yl)-1H-imidazole-5-yl)acetonitrile]
3 | 30 to 100 | N#CCc1cnc(-c2ccc3c(c2)OCCO3)n1-c1ccnc(NC2CCCNC2)n1 (stereo not drawn) [Example 26, 2-(2-(2,3-dihydrobenzo[b][1,4]dioxin-6-yl)-1-(2-(piperidine-3-ylamino)pyrimidine-4-yl)-1H-imidazole-5-yl)acetonitrile]
4 | < 30 | N#CCc1cnc(-c2ccc3ccccc3c2)n1-c1ccnc(NC2CCCNC2)n1 (stereo not drawn) [Example 28, 2-(2-(naphthalene-2-yl)-1-(2-(piperidine-3-ylamino)pyrimidine-4-yl)-1H-imidazole-5-yl)acetonitrile]
5 | 30 to 100 | N#CCc1cnc(-c2ccc(F)c(C(F)(F)F)c2)n1-c1ccnc(NC2CCCN(C(=O)C3CC3)C2)n1 (stereo not drawn) [Example 36, 2-(1-(2-(1-(cyclopropanecarbonyl)piperidine-3-ylamino)pyrimidine-4-yl)-2-(4-fluoro-3-(trifluoromethyl)phenyl)-1H-imidazole-5-yl)acetonitrile]
6 | 30 to 100 | N#CCc1cnc(-c2ccc3c(c2)OCCO3)n1-c1ccnc(NC2CCCN(C(=O)C3CC3)C2)n1 (stereo not drawn) [Example 32, 2-(1-(2-(1-(cyclopropanecarbonyl)piperidine-3-ylamino)pyrimidine-4-yl)-2-(2,3-dihydrobenzo[b][1,4]dioxin-6-yl)-1H-imidazole-5-yl)acetonitrile]
7 | < 30 | N#CCc1cnc(-c2ccc3ccccc3n2)n1-c1ccnc(NC2CCCN(C(=O)C3CC3)C2)n1 (stereo not drawn) [Example 33, 2-(1-(2-(1-(cyclopropanecarbonyl)piperidine-3-ylamino)pyrimidine-4-yl)-2-(quinoline-2-yl)-1H-imidazole-5-yl)acetonitrile]
8 | 30 to 100 | N#CCc1cnc(-c2ccc(Cl)c(Cl)c2)n1-c1ccnc(NC2CCCNC2)n1 (stereo not drawn) [Example 29, 2-(2-(3,4-dichlorophenyl)-1-(2-(piperidine-3-ylamino)pyrimidine-4-yl)-1H-imidazole-5-yl)acetonitrile]
9 | 30 to 100 | N#CCc1cnc(-c2ccc3ccccc3n2)n1-c1ccnc(NC2CCCNC2)n1 (stereo not drawn) [Example 27, 2-(1-(2-(piperidine-3-ylamino)pyrimidine-4-yl)-2-(quinoline-2-yl)-1H-imidazole-5-yl)acetonitrile]
10 | 30 to 100 | N#CCc1cnc(-c2ccc(F)c(C(F)(F)F)c2)n1-c1ccnc(NC2CCCNC2)n1 (stereo not drawn) [Example 30, 2-(2-(4-fluoro-3-(trifluoromethyl)phenyl)-1-(2-(piperidine-3-ylamino)pyrimidine-4-yl)-1H-imidazole-5-yl)acetonitrile]
11 | 30 to 100 | N#CCc1cnc(-c2ccc(Cl)c(Cl)c2)n1-c1ccnc(NC2CCCN(C(=O)C3CC3)C2)n1 (stereo not drawn) [Example 35, 2-(1-(2-(1-(cyclopropanecarbonyl)piperidine-3-ylamino)pyrimidine-4-yl)-2-(3,4-dichlorophenyl)-1H-imidazole-5-yl)acetonitrile]

Second part, the compound before the results:

Row | SMILES | IC50 [nM]
12 | CC(O)CNc1nccc(-n2c(CC#N)cnc2-c2ccc3ccccc3n2)n1 (stereo not drawn) [Example 15, 2-(1-(2-(2-hydroxypropylamino)pyrimidine-4-yl)-2-(quinoline-2-yl)-1H-imidazole-5-yl)acetonitrile] | 30 to 100
13 | CC(O)CNc1nccc(-n2c(CC#N)cnc2-c2ccc3c(c2)OCO3)n1 (stereo not drawn) [Example 13, 2-(2-(benzo[d][1,3]dioxol-5-yl)-1-(2-(2-hydroxypropylamino)pyrimidine-4-yl)-1H-imidazole-5-yl)acetonitrile] | 30 to 100
14 | N#CCc1cnc(-c2ccc3ccccc3c2)n1-c1ccnc(NC2CCCCC2)n1 [Example 10, 2-(1-(2-(cyclohexylamino)pyrimidine-4-yl)-2-(naphthalene-2-yl)-1H-imidazole-5-yl)acetonitrile] | 30 to 100
15 | N#CCc1cnc(-c2ccc3c(c2)OCO3)n1-c1ccnc(NC2CCCNC2)n1 (stereo not drawn) [Example 25, 2-(2-(benzo[d][1,3]dioxol-5-yl)-1-(2-(piperidine-3-ylamino)pyrimidine-4-yl)-1H-imidazole-5-yl) acetonitrile] | > 100
16 | N#CCc1cnc(-c2ccc3c(c2)OCCO3)n1-c1ccnc(NC2CCCCC2)n1 [Example 8, 2-(1-(2-(cyclohexylamino)pyrimidine-4-yl)-2-(2,3-dihydrobenzo[b][1,4]dioxin-6-yl)-1H-imidazole-5-yl)acetonitrile] | > 100
17 | N#CCc1cnc(-c2ccc(F)c(C(F)(F)F)c2)n1-c1ccnc(NC2CCOCC2)n1 [Example 6, 2-(2-(4-fluoro-3-(trifluoromethyl)phenyl)-1-(2-(tetrahydro-2H-pyran-4-ylamino)pyrimidine-4-yl)-1H-imidazole-5-yl)acetonitrile] | 30 to 100
18 | N#CCc1cnc(-c2ccc(Cl)c(Cl)c2)n1-c1ccnc(NC2CCOCC2)n1 [Example 5, 2-(2-(3,4-dichlorophenyl)-1-(2-(tetrahydro-2H-pyran-4-ylamino)pyrimidine-4-yl)-1H-imidazole-5-yl)acetonitrile] | 30 to 100
19 | CC(O)CNc1nccc(-n2c(CC#N)cnc2-c2ccc3c(c2)OCCO3)n1 (stereo not drawn) [Example 14, 2-(2-(2,3-dihydrobenzo[b][1,4]dioxin-6-yl)-1-(2-(2-hydroxypropylamino)pyrimidine-4-yl)-1H-imidazole-5-yl)acetonitrile] | 30 to 100
20 | CC(O)CNc1nccc(-n2c(CC#N)cnc2-c2ccc(Cl)c(Cl)c2)n1 (stereo not drawn) [Example 17, 2-(2-(3,4-dichlorophenyl)-1-(2-(2-hydroxypropylamino)pyrimidine-4-yl)-1H-imidazole-5-yl)acetonitrile] | 30 to 100
21 | N#CCc1cnc(-c2ccc(Cl)c(Cl)c2)n1-c1ccnc(NC2CCCCC2)n1 [Example 11, 2-(1-(2-(cyclohexylamino)pyrimidine-4-yl)-2-(3,4-dichlorophenphenyl)-1H-imidazole-5-yl)acetonitrile] | 30 to 100
22 | N#CCc1cnc(-c2ccc3ccccc3n2)n1-c1ccnc(NC2CCCCC2)n1 [Example 9, 2-(1-(2-(cyclohexylamino)pyrimidine-4-yl)-2-(quinoline-2-yl)-1H-imidazole-5-yl)acetonitrile] | > 100
23 | CC(O)CNc1nccc(-n2c(CC#N)cnc2-c2ccc(F)c(C(F)(F)F)c2)n1 (stereo not drawn) [Example 18, 2-(2-(4-fluoro-3-(trifluoromethyl)phenyl)-1-(2-(2-hydroxypropylamino)pyrimidine-4-yl)-1H-imidazole-5-yl)acetonitrile] | 30 to 100
24 | N#CCc1cnc(-c2ccc3c(c2)OCO3)n1-c1ccnc(NC2CCCCC2)n1 [Example 7, 2-(2-(benzo[d][1,3]dioxol-5-yl)-1-(2-(cyclohexylamino)pyrimidine-4-yl)-1H-imidazole-5-yl)acetonitrile] | > 100
25 | N#CCc1cnc(-c2ccc3c(c2)OCO3)n1-c1ccnc(NC2CCOCC2)n1 [Example 1, 2-(2-(benzo[d][1,3]dioxol-5-yl)-1-(2-(tetrahydro-2H-pyran-4-ylamino)pyrimidine-4-yl)-1H-imidazole-5-yl)acetonitrile] | 30 to 100
26 | N#CCc1cnc(-c2ccc3c(c2)OCCO3)n1-c1ccnc(NC2CCOCC2)n1 [Example 2, 2-(2-(2,3-dihydrobenzo[b][1,4]dioxin-6-yl)-1-(2-(tetrahydro-2H-pyran-4-ylamino)pyrimidine-4-yl)-1H-imidazole-5-yl)acetonitrile] | > 100
27 | N#CCc1cnc(-c2ccc(F)c(C(F)(F)F)c2)n1-c1ccnc(NC2CCCCC2)n1 [Example 12, 2-(1-(2-(cyclohexylamino)pyrimidine-4-yl)-2-(4-fluoro-3-(trifluoromethyl)phenyl)-1H-imidazole-5-yl)acetonitrile] | > 100
28 | N#CCc1cnc(-c2ccc3ccccc3c2)n1-c1ccnc(NC2CCOCC2)n1 [Example 4, 2-(2-(naphthalene-2-yl)-1-(2-(tetrahydro-2H-pyran-4-ylamino)pyrimidine-4-yl)-1H-imidazole-5-yl)acetonitrile] | < 30
29 | CC(O)CNc1nccc(-n2c(CC#N)cnc2-c2ccc3ccccc3c2)n1 (stereo not drawn) [Example 16, 2-(1-(2-(2-hydroxypropylamino)pyrimidine-4-yl)-2-(naphthalene-2-yl)-1H-imidazole-5-yl)acetonitrile] | 30 to 100
30 | N#CCc1cnc(-c2ccc3ccccc3n2)n1-c1ccnc(NC2CCOCC2)n1 [Example 3, 2-(2-(quinoline-2-yl)-1-(2-(tetrahydro-2H-pyran-4-ylamino)pyrimidine-4-yl)-1H-imidazole-5-yl) acetonitrile] | 30 to 100

Reference: patent publication US10301291B2, “Imidazole derivative having JNK inhibitory activity and use thereof” (SAMJIN PHARMACEUTICAL CO., LTD., priority 2016, dated 2019)
